According to US8940793B2, “4-[(haloalkyl)(dimethyl)ammonio]butanoates and use thereof in the treatment of cardiovascular disease” (JSC Grindeks, priority 2011, dated 2015):
Marks after values point to notes of the source that are not given here.

How the values were obtained:
isolated rat heart = experiment: Isolated rat heart infarction study after oral treatment (cardioprotective activity); format: in vivo, Wistar rats; settings: for Infarct size, % of control: 20 mg/kg p.o. daily, after 2 weeks of treatment (method: 8 weeks), hearts excised 24 h after last dose, 60 min occlusion, 150 min reperfusion, mean ± s.e.m. of 9-10 animals; for Therapeutical (cardioprotective) effect, in words / Decrease of infarct size: 20 mg/kg p.o., isolated rat heart infarction model; for Decrease of infarct size: versus control
Protocol: Fifty male, 10 weeks old Wistar rats weighing 200-250 g were housed under standard conditions (21-23° C., 12 h light-dark cycle) with unlimited access to food (R3 diet, Lactamin AB, Sweden) and water.
(§1) Rats were adapted to local conditions for two weeks before the start of treatment. Meldonium dihydrate at a dose of 20 mg/kg, gamma-butyrobetaine at a dose of 20 mg/kg and 4-[(chloromethyl)(dimethyl) ammonio]butanoate at dose of 20 mg/kg were administered p.o. daily for 8 weeks. Control rats received water.
The isolated rat heart experiment was performed essentially as described earlier (Liepinsh et al., J. Cardiovasc. Pharmacol. 2006; 48(6):314-9). Twenty-four hours after the last drug administration hearts were excised and retrogradely perfused via the aorta at a constant pressure with oxygenated Krebs-Henseleit buffer at 37° C. The heart rate, left ventricle end-diastolic pressure and left ventricle developed pressure were continuously recorded. Coronary flow was measured using an ultrasound flow detector (HSE) and the PowerLab 8/30 system from ADInstruments. The hearts were perfused for 20 min to stabilize the hemodynamic functions and then occlusion was performed for 60 min by constricting threads through a plastic tube. Successful occlusion was confirmed by a coronary flow decrease of about 40 percent. Reperfusion was achieved by releasing the threads. At the end of the 150-min reperfusion period, the risk zone was delineated with 0.1% methylene blue. The hearts were then sectioned transversely from the apex to the base in five slices 2 mm in thickness and incubated in 1% triphenyltetrazolium chloride in phosphate buffer (pH 7.4, 37° C.) for 10 min to stain viable tissue red and necrotic tissue white. Computerized planemetric analysis of Sony A900 photographs was performed using Image-Pro Plus 6.3 software to determine the area at risk and area of necrosis expressed as a % of the left ventricle. The obtained values were then used to calculate the infarct size (IS) as a % of risk area according to the formula: Infarct Size=Area of Necrosis/Area at Risk×100%. Effects in Isolated Rat Heart Infarction Model
The anti-infarction effect of examined substances was investigated in an isolated rat heart infarction model. During occlusion of left coronary artery, the coronary flow in all experimental groups was decreased for 40% (from 11 ml/min to 7 ml/min). Moreover, the drop of developed left ventricular pressure for 50% was observed. […] In reperfusion stage, coronary flow, developed left ventricular pressure, ±dp/dt values were recovered till about 80% of control level. There were no significant differences between control and treatment groups.
Effects of Meldonium dihydrate (20 mg/kg), gamma-butyrobetaine (20 mg/kg) and 4-[(chloromethyl)(dimethyl) ammonio]butanoate (20 mg/kg) after 2 weeks of treatment on infarct size in the isolated rat heart infarction experiment are presented in Table 1.
as §1, with “3-carboxy-N-(2-chloroethyl)-N,N-dimethylpropan-1-aminium chloride” for “4-[(chloromethyl)(dimethyl) ammonio]butanoate”
Effects of Meldonium dihydrate (20 mg/kg), gamma-butyrobetaine (20 mg/kg) and 3-carboxy-N-(2-chloroethyl)-N,N-dimethylpropan-1-aminium chloride (20 mg/kg) after 2 weeks of treatment on infarct size in the isolated rat heart infarction experiment are presented in Table 2.
The same experimental conditions as above were used for testing 3-carboxy-N-(2-fluoroethyl)-N,N-dimethylpropan-1-aminium chloride.
Effects of Meldonium dihydrate (20 mg/kg), gamma-butyrobetaine (20 mg/kg) and 3-carboxy-N-(2-fluoroethyl)-N,N-dimethylpropan-1-aminium chloride (20 mg/kg) after 2 weeks of treatment on infarct size in the isolated rat heart infarction experiment are presented in Table 3.

[1] = s.c.; cited from earlier work

SMILES	Infarct size, % of control (isolated rat heart)	Therapeutical (cardioprotective) effect, in words (isolated rat heart)	Decrease of infarct size (isolated rat heart) [%]	melting point [°C]	LD50 [1] [mg/kg]
C[N+](C)(CCCl)CCCC(=O)O.[Cl-] [3-carboxy-N-(2-chloroethyl)-N,N-dimethylpropan-1-aminium chloride]	59.9 ± 7.6*^,#,$ % of control	best therapeutical effect	41.1	130	–
C[N+](C)(CCF)CCCC(=O)O.[Cl-] [3-carboxy-N-(2-fluoroethyl)-N,N-dimethylpropan-1-aminium chloride]	65.5 ± 9.1*^,#,$ % of control	best therapeutical effect	34.5	–	–
C[N+](C)(CCl)CCCC(=O)[O-] [4-[(chloromethyl)(dimethyl)ammonio]butanoate]	65.2 ± 6.8*^,#,$ % of control	best therapeutical effect	34.8	100.5 to 101	–
C[N+](C)(C)NCCC(=O)[O-] [Meldonium dihydrate, 3-(2,2,2-Trimethylhydrazinium) propionate dihydrate, reference compound]	117.9 ± 7.9 % of control	–	–	–	–
C[N+](C)(C)CCCC(=O)[O-] [Gamma-butyrobetaine, γ-Butyrobetaine, reference compound]	87.6 ± 11.4 % of control	–	~12.4	–	> 7000
